Publication PMC11053168, “Agonist-selective activation of individual G-proteins by muscarinic receptors” (Scientific Reports, 2024)
pKi: −log10 of the molar value. Like-named read-outs stand apart in the source and are kept apart here.

How the values were obtained:
M1 muscarinic receptor = biological target: T1, M1 muscarinic receptor (Homo sapiens, UniProt P11229); assay: [3H]NMS competition binding, membranes from CHO cells expressing M1; settings: competition with [3H]NMS, mean ± SD, three experiments, read-out: Binding affinity, negative logarithm of Ki (converted)
T1 construct: membranes
T1 sequence (P11229 1-460): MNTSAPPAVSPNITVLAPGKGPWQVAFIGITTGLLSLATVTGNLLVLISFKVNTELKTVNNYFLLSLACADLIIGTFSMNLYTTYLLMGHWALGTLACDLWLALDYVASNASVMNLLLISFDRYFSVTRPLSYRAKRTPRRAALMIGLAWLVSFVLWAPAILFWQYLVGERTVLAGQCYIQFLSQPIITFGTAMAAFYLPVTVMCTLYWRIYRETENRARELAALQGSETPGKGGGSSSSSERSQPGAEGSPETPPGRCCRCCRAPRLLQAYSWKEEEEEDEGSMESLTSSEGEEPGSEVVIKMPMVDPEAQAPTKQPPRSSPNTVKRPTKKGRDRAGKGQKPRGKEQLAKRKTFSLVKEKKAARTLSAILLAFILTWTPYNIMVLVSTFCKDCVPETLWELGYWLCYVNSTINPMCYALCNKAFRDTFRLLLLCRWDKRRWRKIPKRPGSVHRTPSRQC
Method: (§1) Cells were cultured as described previously by Randakova et al.[33]. […] The medium was supplemented with 5 mM butyrate for the last 24 h of culture to increase receptor expression. Cells were washed with (phosphate-buffered saline (PBS), mechanically harvested by scraper and centrifugated 1000 × g for 5 min. Cell pellets were kept at − 80 °C.
(§2) Membranes were prepared as described previously by Randakova et al.[33]. Cells harvested from twenty 100 mm petri dishes (CHO) or 30 ml of cell suspension (Sf9) were suspended in 20 ml of ice-cold incubation medium (100 mM NaCl, 20 mM Na-HEPES, 10 mM MgCl2, pH 7.4) supplemented with 10 mM EDTA and homogenized on ice by two 30‐s strokes using a Polytron homogenizer (Ultra-Turrax; Janke & Kunkel GmbH & Co. KG, IKA-Labortechnik, Staufen, Germany) with a 30 s pause between strokes. Cell homogenates were centrifuged for 5 min at 1000×g to remove whole cells and cell nuclei. The resulting supernatants were centrifuged for 30 min at 30,000×g. Pellets were suspended in a fresh incubation medium, incubated on ice for 30 min, and centrifuged again. The resulting membrane pellets were kept at − 80 °C until assayed within 10 weeks.
(§3) Non-specific binding was determined in the presence of 10 μM unlabelled atropine. Incubations were terminated by filtration through filtration plates multiscreen 96 well Harvest (Merck Millipore) using a Brandel cell harvester (Brandel, Gaithersburg, MD, USA). Filtration plates were dried in a microwave oven, and then 40 μl of liquid scintillator Rotiscint eco plus (Roth) was added. The filtration plates were counted in the Microbeta scintillation counter (PerkinElmer). […] The inhibition constant KI was calculated according to Eq. (2).
(§4) Inhibition constants KI were calculated according to Eq. (2).2 KI=IC50/1+D/KD where IC50 is calculated according to Eq.

M4 muscarinic receptor = biological target: T2, M4 muscarinic receptor (Homo sapiens, UniProt P08173); assay: [3H]NMS competition binding, membranes from CHO cells expressing M4
T2 construct: membranes
T2 sequence (P08173 1-479): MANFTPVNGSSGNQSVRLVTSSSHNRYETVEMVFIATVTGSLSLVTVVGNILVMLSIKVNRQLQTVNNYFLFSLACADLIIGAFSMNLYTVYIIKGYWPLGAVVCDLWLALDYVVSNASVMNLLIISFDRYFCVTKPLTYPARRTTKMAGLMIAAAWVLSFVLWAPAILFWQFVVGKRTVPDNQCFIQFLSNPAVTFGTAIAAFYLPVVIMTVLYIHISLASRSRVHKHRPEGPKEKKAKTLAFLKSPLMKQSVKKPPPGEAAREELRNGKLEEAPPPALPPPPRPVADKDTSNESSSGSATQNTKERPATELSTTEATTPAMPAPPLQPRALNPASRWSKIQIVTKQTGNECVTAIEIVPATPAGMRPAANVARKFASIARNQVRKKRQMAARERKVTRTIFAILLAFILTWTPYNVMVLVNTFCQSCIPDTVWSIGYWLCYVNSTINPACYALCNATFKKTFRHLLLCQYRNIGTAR
Method: as §1, §2, §3, §4

[1] = biological target: individual subtypes of muscarinic receptors (M1–M5); parameters: method as in PMID 31910288; settings: summary of Table 1 over subtypes; read-out: Affinity; cited from earlier work
M1 receptor = biological target: T3, M1 receptor (Homo sapiens, UniProt P11229); parameters: expressed in transfected cells; method as in PMID 31910288; settings: CHO expressing M1; cited from earlier work
T3 sequence (P11229 1-460): T1 sequence (P11229 1-460)

M3 receptor = M3 receptor (Homo sapiens, UniProt P20309); parameters: expressed in transfected cells; method as in PMID 31910288; settings: CHO expressing M3; cited from earlier work
Chain of M3 receptor (P20309 whole entry): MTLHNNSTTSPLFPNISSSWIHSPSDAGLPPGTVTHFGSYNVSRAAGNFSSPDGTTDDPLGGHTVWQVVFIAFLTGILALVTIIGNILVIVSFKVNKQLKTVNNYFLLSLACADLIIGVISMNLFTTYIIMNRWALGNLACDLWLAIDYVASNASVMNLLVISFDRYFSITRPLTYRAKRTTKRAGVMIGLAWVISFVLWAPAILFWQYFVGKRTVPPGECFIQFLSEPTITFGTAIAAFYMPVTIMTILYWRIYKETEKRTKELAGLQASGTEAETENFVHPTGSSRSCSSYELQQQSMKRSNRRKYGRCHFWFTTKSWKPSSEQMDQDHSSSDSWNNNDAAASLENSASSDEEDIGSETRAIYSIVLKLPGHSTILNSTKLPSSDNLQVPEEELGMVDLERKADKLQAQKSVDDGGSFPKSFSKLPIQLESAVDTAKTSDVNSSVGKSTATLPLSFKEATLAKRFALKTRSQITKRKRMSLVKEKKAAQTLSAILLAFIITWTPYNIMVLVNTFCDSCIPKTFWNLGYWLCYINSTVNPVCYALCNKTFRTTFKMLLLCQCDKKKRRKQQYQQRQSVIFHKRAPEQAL

[2] = tested on: individual subtypes of muscarinic receptors (M1–M5); assay: [3H]NMS competition binding, summary over subtypes; parameters: species or system human; settings: summary of Table 1 over subtypes
Method: CHO cells stably transfected with the genes of individual subtypes of human muscarinic receptors (M1–M5, wild types) were purchased from Missouri S&T cDNA resource center (Rolla, MO, USA) (https://www.cdna.org/home.php?cat=177). Cells were cultured as described previously by Randakova et al.[33]. Cells were grown to confluence in 75 cm^2 flasks in Dulbecco’s modified Eagle’s medium DMEM (Thermo Fisher Scientific; LOT: 2556745) supplemented with 10% fetal bovine serum and geneticin in concentration 50 µg/ml at 37 °C in a humidified incubator containing 5% CO2. The medium was supplemented with 5 mM butyrate for the last 24 h of culture to increase receptor expression. Cells were washed with (phosphate-buffered saline (PBS), mechanically harvested by scraper and centrifugated 1000 × g for 5 min. Cell pellets were kept at − 80 °C.
Membranes were prepared as described previously by Randakova et al.[33]. […]
Non-specific binding was determined in the presence of 10 μM unlabelled atropine. […] The filtration plates were counted in the Microbeta scintillation counter (PerkinElmer). […] The inhibition constant KI was calculated according to Eq. (2). […]

| SMILES | Ki (M1 muscarinic receptor) [µM] | pKi (M4 muscarinic receptor) | also measured |
| --- | --- | --- | --- |
| c1csc(C[N+]23CCC(CC2)CC3)c1 [JB-8A] | 6.92 | 5.34 |  |
| C[N+]1(Cc2cccs2)CCOCC1 [JB-12-2] | 85.1 | 4.77 |  |
| COC(=O)C1=CCCN(Cc2cccs2)C1 [JB-13-1] | 115 |  | Ki (M4 muscarinic receptor; M4, competition with [3H]NMS, mean ± SD, three experiments, read-out: Binding affinity, negative logarithm of Ki (converted)): 77.6 µM |
| C[N+]1(Cc2cccs2)CC=CCC1 (stereo not shown) [JR-6, 1-methyl-1-[(thiophen-2-yl)methyl]-1,2,3,6-tetra hydropyridin-1-ium] |  |  | pKi [1]: ~5.00; IP production (M1 receptor): weak IP production; IP production (M3 receptor): marginal response |
| C[N+]1(Cc2ccc(Cl)s2)CC=CCC1 (stereo not shown) [PN-152, 1-[(5-chlorothiophen-2-yl)methyl]-1-methyl-1,2,3,6-tetrahydropyridin-1-ium] |  |  | Affinity, times higher than JR-6 [2]: three to ten |
